Experimental data from PMC11831560, “Development of the Pyrido[2,3-d]pyrimidin-7(8H)-one Scaffold toward Potent and Selective NUAK1 Inhibitors” (ACS Medicinal Chemistry Letters, 2025).
Several values for one entry are separate records, joined by “and”; a condition that tells them apart may be missing. Identical values can stand only once.

Columns and labels:
Test in all cases: Kinase panel radiometric filter binding (33P-ATP)
Type in all cases: biochemical
Parameters in all cases: % activity remaining: dose or concentration left out as unconfirmed
IGF-1R = IGF-1R (Homo sapiens, UniProt P08069); settings: for % activity remaining: IGF-1R
Sequence of IGF-1R (P08069 31-1367, species assumed): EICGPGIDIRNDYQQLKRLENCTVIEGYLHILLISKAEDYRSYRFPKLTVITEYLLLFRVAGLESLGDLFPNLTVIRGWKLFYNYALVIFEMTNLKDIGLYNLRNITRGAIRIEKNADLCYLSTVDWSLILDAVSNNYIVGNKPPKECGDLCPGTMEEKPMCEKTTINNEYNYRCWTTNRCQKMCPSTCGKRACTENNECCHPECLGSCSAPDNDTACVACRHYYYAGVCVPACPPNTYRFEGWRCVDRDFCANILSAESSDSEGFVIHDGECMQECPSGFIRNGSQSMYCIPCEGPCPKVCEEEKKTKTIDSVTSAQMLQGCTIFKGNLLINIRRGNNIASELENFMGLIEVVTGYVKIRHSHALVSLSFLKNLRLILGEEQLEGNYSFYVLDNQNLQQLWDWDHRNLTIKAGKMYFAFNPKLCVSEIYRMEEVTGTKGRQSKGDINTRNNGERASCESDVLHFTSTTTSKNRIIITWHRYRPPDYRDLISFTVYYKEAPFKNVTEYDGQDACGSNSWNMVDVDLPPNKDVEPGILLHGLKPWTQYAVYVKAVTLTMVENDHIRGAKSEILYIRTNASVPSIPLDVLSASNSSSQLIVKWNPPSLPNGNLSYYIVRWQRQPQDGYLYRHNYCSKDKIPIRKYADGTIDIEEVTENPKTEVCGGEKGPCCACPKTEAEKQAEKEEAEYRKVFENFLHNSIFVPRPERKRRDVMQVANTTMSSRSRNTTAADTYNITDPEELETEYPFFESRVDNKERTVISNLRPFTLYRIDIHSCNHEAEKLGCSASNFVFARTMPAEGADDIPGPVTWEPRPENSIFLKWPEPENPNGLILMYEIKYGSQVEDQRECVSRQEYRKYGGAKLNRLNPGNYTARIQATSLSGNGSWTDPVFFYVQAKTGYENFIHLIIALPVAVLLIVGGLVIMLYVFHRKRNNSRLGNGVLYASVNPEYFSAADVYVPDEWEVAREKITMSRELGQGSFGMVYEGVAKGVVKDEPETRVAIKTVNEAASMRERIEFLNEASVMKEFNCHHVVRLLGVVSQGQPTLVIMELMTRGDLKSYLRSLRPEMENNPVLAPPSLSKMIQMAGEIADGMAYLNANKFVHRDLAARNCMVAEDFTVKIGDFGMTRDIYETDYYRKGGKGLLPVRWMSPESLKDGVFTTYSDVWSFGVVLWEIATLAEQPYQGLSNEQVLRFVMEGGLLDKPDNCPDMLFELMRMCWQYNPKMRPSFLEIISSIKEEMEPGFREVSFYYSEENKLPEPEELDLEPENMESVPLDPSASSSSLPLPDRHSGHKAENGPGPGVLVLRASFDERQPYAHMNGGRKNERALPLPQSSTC
Description: (§1) Table S4: AMPKA kinase activity data (ADP-Glo assay)
(§2) Compound pIC50 (Fold selectivity
(§3) Table S5. Kinase selectivity screening for 9 and 24 at 1 µM against a general kinase panel of 140 targets
(§4) in radiometric filter binding assay using 33P-γ−ATP at the MRC PPU International Centre for Kinase
(§5) Profiling, University of Dundee. pIC50 values were determined for compounds with <20% activity
(§6) Kinase activity s.d. pIC50 activity s.d. pIC50

JAK3 = biological target: T1, JAK3 (Homo sapiens, UniProt P52333); settings: for % activity remaining: JAK3
T1 sequence (P52333 1-1124): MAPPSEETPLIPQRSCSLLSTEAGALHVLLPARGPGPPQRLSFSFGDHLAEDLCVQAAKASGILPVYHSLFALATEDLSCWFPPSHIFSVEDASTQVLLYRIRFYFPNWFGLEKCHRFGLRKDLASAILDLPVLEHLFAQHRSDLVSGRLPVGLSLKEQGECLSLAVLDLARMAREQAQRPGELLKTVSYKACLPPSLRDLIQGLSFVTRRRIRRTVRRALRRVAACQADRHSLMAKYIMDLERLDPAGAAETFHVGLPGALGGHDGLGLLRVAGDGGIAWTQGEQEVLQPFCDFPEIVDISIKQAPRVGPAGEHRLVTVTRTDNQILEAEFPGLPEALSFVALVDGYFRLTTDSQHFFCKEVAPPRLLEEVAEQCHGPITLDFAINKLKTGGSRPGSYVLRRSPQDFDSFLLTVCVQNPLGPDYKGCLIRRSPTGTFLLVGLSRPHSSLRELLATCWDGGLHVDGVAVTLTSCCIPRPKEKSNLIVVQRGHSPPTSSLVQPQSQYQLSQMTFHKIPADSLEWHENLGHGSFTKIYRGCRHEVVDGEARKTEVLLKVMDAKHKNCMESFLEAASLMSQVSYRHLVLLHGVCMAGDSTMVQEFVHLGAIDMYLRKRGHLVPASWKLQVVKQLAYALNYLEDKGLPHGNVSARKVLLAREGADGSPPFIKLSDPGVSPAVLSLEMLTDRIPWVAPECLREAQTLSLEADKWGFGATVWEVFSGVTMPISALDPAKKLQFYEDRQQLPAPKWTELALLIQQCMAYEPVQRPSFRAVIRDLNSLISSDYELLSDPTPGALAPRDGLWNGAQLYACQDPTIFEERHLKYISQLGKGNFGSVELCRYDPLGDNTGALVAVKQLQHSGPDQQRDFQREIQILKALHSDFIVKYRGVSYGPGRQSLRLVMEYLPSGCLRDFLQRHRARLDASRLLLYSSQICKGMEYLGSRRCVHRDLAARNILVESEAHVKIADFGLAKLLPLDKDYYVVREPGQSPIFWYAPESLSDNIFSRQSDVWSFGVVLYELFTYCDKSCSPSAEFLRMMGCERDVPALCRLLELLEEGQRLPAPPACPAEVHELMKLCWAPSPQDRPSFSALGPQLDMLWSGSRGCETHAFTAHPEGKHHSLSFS
Description: as §1, §2, §3, §4, §5, §6

MARK1 = biological target: T2, MARK1 (Homo sapiens, UniProt Q9P0L2); settings: for % activity remaining: MARK1
T2 construct: purchased MRC PPU
T2 sequence (Q9P0L2 whole entry): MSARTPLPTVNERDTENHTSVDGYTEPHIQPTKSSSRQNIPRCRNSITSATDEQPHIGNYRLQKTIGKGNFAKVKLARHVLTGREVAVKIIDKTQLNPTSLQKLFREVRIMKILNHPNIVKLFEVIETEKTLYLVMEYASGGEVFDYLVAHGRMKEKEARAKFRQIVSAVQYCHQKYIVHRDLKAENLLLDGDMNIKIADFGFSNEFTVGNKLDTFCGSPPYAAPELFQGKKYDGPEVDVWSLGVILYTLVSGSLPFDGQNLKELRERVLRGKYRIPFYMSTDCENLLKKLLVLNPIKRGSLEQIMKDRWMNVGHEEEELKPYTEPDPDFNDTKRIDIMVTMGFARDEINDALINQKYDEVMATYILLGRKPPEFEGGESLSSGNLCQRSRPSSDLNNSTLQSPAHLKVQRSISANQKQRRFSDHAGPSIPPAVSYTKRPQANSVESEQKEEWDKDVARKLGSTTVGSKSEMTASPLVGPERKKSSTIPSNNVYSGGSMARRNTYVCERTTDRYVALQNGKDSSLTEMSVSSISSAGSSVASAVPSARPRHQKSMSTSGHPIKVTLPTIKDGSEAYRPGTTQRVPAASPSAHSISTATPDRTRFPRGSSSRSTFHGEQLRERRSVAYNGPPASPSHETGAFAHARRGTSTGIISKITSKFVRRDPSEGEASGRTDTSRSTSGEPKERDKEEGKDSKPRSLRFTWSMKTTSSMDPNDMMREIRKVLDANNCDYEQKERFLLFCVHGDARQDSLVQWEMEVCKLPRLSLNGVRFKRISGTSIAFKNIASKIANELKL
Description: as §1, §2, §3, §4, §5, §6

MELK = MELK (Homo sapiens, UniProt Q14680); settings: for % activity remaining: MELK
Sequence of MELK (Q14680 whole entry, species assumed): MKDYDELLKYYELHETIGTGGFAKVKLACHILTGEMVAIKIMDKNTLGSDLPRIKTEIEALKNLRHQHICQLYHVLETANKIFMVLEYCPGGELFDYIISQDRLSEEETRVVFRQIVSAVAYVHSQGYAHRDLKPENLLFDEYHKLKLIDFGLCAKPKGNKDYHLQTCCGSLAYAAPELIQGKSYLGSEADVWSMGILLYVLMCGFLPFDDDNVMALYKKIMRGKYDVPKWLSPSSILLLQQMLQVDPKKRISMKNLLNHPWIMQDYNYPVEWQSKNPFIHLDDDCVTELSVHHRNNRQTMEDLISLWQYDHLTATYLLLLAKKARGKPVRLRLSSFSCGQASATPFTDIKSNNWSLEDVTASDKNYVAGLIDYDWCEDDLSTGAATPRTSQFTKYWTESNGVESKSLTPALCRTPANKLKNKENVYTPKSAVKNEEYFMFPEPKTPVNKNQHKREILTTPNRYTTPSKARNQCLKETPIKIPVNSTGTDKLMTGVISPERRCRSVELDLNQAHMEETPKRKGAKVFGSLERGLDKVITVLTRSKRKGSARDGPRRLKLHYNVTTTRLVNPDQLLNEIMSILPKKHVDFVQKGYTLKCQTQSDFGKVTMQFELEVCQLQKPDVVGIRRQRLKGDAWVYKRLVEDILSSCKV
Description: as §1, §2, §3, §4, §5, §6

SIK2 = SIK2 (Homo sapiens, UniProt Q9H0K1); settings: for % activity remaining: SIK2
Sequence of SIK2 (Q9H0K1 whole entry, species assumed): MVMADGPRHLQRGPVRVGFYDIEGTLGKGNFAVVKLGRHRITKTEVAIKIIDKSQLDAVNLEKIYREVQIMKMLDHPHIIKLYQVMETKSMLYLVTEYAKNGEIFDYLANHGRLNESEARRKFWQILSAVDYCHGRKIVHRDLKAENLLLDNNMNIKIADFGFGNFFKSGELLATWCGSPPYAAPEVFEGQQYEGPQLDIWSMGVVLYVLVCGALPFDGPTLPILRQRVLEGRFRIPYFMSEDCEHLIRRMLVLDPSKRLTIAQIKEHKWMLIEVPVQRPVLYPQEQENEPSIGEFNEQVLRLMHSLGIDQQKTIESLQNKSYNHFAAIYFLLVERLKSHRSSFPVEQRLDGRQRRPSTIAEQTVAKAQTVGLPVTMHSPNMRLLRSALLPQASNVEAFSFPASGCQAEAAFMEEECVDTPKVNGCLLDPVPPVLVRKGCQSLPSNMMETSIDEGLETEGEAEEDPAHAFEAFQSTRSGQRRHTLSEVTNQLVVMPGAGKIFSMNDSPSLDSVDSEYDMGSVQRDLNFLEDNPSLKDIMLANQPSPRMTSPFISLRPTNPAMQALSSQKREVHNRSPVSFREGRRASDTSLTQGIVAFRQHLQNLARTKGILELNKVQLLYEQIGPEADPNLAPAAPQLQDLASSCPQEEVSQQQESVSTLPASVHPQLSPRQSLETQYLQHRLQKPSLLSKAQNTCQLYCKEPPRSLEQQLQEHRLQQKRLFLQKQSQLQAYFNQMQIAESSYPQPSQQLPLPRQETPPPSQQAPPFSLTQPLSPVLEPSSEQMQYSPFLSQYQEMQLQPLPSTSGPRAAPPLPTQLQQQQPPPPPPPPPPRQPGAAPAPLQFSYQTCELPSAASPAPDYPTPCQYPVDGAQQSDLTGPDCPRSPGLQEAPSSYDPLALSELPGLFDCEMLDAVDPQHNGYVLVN
Description: as §1, §2, §3, §4, §5, §6

TrkA = TrkA (Homo sapiens, UniProt P04629); settings: for % activity remaining: TrkA
Sequence of TrkA (P04629 33-796, species assumed): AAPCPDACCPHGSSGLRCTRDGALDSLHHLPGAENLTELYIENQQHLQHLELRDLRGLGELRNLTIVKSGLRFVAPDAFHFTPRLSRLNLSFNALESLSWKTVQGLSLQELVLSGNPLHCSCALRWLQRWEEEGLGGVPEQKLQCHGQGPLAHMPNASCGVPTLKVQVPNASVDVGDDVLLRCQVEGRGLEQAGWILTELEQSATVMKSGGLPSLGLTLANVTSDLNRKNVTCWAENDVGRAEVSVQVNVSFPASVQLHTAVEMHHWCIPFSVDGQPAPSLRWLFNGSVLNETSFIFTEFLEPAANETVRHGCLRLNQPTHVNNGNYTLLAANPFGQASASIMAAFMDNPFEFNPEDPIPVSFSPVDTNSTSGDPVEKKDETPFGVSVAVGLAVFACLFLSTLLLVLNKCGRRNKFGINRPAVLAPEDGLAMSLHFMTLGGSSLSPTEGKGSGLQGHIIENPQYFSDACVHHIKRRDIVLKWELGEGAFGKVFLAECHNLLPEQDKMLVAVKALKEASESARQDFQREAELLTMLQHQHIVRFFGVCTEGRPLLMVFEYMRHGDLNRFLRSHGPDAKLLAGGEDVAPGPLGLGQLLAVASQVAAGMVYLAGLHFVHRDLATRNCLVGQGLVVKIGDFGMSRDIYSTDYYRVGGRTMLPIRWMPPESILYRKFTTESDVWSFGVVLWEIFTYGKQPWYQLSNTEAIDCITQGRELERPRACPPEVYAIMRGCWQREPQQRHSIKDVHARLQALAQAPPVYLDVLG
Description: as §1, §2, §3, §4, §5, §6

ULK2 = biological target: T3, ULK2 (Homo sapiens, UniProt Q8IYT8); settings: for % activity remaining: ULK2
T3 sequence (Q8IYT8 1-1036): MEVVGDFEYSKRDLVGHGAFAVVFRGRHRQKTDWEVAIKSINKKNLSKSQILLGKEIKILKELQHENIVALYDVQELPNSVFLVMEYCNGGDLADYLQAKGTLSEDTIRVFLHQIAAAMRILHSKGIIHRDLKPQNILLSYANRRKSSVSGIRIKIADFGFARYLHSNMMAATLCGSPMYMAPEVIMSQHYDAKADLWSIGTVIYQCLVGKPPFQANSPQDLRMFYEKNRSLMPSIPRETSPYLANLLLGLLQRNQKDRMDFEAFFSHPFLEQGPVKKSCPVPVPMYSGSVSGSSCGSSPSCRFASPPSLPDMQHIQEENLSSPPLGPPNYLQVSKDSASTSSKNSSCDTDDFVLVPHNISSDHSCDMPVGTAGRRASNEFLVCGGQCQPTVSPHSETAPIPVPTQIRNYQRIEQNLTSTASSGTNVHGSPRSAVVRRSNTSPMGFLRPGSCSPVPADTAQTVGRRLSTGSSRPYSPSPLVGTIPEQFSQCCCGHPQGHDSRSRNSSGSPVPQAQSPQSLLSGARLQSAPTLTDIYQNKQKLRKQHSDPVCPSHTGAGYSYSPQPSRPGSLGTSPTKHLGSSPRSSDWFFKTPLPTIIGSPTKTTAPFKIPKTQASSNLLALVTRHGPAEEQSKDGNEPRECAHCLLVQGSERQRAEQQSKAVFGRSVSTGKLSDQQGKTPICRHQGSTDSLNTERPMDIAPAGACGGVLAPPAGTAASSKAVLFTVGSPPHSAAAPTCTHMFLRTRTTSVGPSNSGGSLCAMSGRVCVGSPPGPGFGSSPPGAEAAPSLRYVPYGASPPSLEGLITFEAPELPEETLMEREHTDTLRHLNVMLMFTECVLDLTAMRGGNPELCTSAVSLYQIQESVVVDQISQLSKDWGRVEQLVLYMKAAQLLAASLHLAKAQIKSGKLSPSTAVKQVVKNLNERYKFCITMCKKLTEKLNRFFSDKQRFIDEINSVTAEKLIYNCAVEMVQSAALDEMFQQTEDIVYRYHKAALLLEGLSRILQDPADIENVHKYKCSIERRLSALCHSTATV
Description: as §1, §2, §3, §4, §5, §6

YES1 = YES1 (Homo sapiens, UniProt P07947); settings: for % activity remaining: YES1
Sequence of YES1 (P07947 whole entry, species assumed): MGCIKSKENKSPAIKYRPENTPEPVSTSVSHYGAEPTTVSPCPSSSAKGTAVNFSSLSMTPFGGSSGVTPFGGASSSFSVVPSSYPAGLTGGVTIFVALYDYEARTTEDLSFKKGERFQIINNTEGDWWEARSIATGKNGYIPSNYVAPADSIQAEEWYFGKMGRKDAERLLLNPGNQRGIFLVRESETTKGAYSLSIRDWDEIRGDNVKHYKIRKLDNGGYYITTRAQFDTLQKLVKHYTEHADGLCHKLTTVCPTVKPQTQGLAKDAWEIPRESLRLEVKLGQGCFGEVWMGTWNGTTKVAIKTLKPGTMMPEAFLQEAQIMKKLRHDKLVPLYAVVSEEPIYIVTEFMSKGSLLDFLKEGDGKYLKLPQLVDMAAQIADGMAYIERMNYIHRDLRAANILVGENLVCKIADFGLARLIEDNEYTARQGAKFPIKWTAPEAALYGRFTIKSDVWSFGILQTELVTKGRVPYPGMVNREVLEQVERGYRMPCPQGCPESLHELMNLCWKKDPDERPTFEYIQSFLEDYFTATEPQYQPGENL
Description: as §1, §2, §3, §4, §5, §6

[1] = radiometric filter binding panel

CN1C2CC1CN(c1ccc(Nc3ncc4ccn(CC5CCOCC5)c4n3)cc1)C2 [Compound 24]
% activity remaining (IGF-1R): 104%
% activity remaining (JAK3): 7%
JAK3 pIC50 (JAK3; [1]): 7.6
IC50 (JAK3; radiometric filter binding panel, read-out: JAK3 pIC50 (converted)): 23.4 nM
% activity remaining (MARK1): 94%
% activity remaining (MELK): 95%
% activity remaining (SIK2): 13%
SIK2 pIC50 (SIK2; [1]): 7.1 and 7.09
% activity remaining (TrkA): 72%
% activity remaining (ULK2): 75%
% activity remaining (YES1): 46%

Cc1cc(=O)n(C2CCCC2)c2nc(Nc3ccc(N4CC5CC(C4)N5C)cc3)ncc12 [Compound 9]
% activity remaining (IGF-1R): 18%
IC50 (IGF-1R; radiometric filter binding panel, read-out: IGF-1R pIC50 (converted)): 1050 nM
% activity remaining (JAK3): 22%
% activity remaining (MARK1): 56%
inhibition at 1 µM (MARK1; at 1 μM, radiometric filter binding assay, Dundee, read-out: MARK1 single point % inhibition): 44%
% activity remaining (MELK): 6%
MELK pIC50 (MELK; [1]): > 7
IC50 (MELK; radiometric filter binding panel, read-out: MELK pIC50 (converted)): 53.7 nM
% activity remaining (SIK2): 44%
IC50 (TrkA): 97.7 nM
% activity remaining (TrkA): 12%
TrkA pIC50 (TrkA; [1]): > 7
% activity remaining (ULK2): 17%
ULK2 pIC50 (ULK2; [1]): 7.4 and 7.39
% activity remaining (YES1): 13%
YES1 pIC50 (YES1; [1]): > 7
IC50 (YES1; radiometric filter binding panel, read-out: YES1 pIC50 (converted)): 75.9 nM
